Experiments:
Plasmopara viticola = type: in vivo; conditions: 200 ppm; grape vine leaf disks; preventative, inoculated 1 day after application; assessed 6-8 days after application
Phytophthora infestans = type: in vivo; conditions: 200 ppm; tomato leaf disks; preventative, inoculated 1 day after application; assessed 5-7 days after application
Pythium ultimum = test: Pythium ultimum/Liquid Culture (Seedling Damping Off); type: cell-based; conditions: Globisporangium ultimum, read-out: control of Pythium ultimum (inhibition of growth, photometric)

COC(=O)Nc1ccc(-c2cnc3ccc(C(=O)N(Cc4cnn(C)c4)c4ccc(F)cc4)cn23)cn1 [Compound 8, methyl N-[5-[6-[(4-fluorophenyl)-[(1-methylpyrazol-4-yl)methyl]carbamoyl]imidazo[1,2-a]pyridin-3-yl]-2-pyridyl]carbamate]
control of Plasmopara viticola (percent disease control compared to untreated) (Plasmopara viticola): at least 80%
control of Phytophthora infestans (percent disease control compared to untreated) (Phytophthora infestans): at least 80%
inhibition at 20 ppm (Pythium ultimum): ≥ 80%

COC(=O)Nc1ccc(-c2cnc3ccc(C(=O)N(Cc4cnn(C)c4)c4ccc(F)c(OC)c4)cn23)cn1 [Compound 2, methyl N-[5-[6-[(4-fluoro-3-methoxy-phenyl)-[(1-methylpyrazol-4-yl)methyl]carbamoyl]imidazo[1,2-a]pyridin-3-yl]-2-pyridyl]carbamate]
control of Plasmopara viticola (percent disease control compared to untreated) (Plasmopara viticola): at least 80%
control of Phytophthora infestans (percent disease control compared to untreated) (Phytophthora infestans): at least 80%
inhibition at 20 ppm (Pythium ultimum): ≥ 80%

COC(=O)Nc1ccc(-c2cnc3c(C)cc(C(=O)N(Cc4cnn(C)c4)c4ccc(F)c(OC)c4)cn23)cn1 [Compound 1, methyl N-[5-[6-[(4-fluoro-3-methoxy-phenyl)-[(1-methylpyrazol-4-yl)methyl]carbamoyl]-8-methyl-imidazo[1,2-a]pyridin-3-yl]-2-pyridyl]carbamate]
control of Plasmopara viticola (percent disease control compared to untreated) (Plasmopara viticola): at least 80%
control of Phytophthora infestans (percent disease control compared to untreated) (Phytophthora infestans): at least 80%
inhibition at 20 ppm (Pythium ultimum): ≥ 80%

COC(=O)Nc1ccc(-c2cnc3ccc(C(=O)N(Cc4ccccc4)c4ccc(F)cc4)cn23)cn1 [Compound 7, methyl N-[5-[6-[benzyl-(4-fluorophenyl)carbamoyl]imidazo[1,2-a]pyridin-3-yl]-2-pyridyl]carbamate]
inhibition at 20 ppm (Pythium ultimum): ≥ 80%

COC(=O)Nc1ccc(-c2cnc3ccc(C(=O)N(Cc4ccco4)c4ccc(Cl)cc4)cn23)cn1 [Compound 6, methyl N-[5-[6-[(4-chlorophenyl)-(2-furylmethyl)carbamoyl]imidazo[1,2-a]pyridin-3-yl]-2-pyridyl]carbamate]
control of Phytophthora infestans (percent disease control compared to untreated) (Phytophthora infestans): at least 80%
inhibition at 20 ppm (Pythium ultimum): ≥ 80%
